In BindingDB's records for doi:10.7270/Q2F769ZM (The Scripps Research Institute Molecular Screening Center, 2007):
pIC50: −log10 of the molar value. Where a name gives a salt, the structure may show the parent alone.

Each compound was assayed against Rho-associated protein kinase 2 (Homo sapiens, UniProt O75116) (assay: human Rho kinase 2 inhibition – biochemical, Kinase-Glo luminescence, S6 peptide, 1536-well, dose response (AID 644)). Conditions: not given.
Rho-associated protein kinase 2, sequence (O75116 whole entry): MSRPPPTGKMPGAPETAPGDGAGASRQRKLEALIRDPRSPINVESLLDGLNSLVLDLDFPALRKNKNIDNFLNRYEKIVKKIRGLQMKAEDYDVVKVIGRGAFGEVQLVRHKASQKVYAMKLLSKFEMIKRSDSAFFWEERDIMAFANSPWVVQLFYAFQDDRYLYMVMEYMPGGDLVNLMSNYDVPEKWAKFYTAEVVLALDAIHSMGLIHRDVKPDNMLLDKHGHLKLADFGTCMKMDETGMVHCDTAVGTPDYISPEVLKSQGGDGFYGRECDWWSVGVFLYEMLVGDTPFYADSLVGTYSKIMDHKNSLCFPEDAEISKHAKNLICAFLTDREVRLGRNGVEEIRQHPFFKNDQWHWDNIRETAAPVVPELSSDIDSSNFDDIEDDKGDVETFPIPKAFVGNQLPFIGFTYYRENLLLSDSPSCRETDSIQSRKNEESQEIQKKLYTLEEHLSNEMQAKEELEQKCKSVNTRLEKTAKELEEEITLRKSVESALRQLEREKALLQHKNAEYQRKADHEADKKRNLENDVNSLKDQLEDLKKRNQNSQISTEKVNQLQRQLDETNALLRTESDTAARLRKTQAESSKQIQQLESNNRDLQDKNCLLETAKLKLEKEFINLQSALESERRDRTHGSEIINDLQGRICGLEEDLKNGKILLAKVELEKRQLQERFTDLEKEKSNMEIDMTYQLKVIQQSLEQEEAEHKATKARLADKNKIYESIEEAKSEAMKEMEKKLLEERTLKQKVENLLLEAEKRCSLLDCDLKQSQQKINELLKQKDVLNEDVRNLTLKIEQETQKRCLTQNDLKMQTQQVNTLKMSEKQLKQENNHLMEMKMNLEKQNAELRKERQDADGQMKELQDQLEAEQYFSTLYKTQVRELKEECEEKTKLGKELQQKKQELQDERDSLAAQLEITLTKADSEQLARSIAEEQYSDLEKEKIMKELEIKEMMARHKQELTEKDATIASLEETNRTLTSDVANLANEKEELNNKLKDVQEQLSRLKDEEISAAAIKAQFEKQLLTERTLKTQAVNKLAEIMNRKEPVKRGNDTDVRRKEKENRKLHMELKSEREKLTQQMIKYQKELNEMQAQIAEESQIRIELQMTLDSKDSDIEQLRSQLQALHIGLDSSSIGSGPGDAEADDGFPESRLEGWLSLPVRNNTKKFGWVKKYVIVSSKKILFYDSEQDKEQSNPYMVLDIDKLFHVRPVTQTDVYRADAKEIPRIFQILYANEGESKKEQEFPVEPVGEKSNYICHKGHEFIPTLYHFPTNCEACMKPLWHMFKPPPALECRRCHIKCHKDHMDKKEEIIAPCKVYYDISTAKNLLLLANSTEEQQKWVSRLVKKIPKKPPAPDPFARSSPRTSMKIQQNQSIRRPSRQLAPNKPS

CC(C)(C)C(=O)c1sc(Nc2ccccc2)nc1N [1-(4-amino-2-anilino-1,3-thiazol-5-yl)-2,2-dimethyl-1-propanone] and Nc1nc2ccccc2n1C(=O)CCc1ccccc1 [1-(2-Amino-benzoimidazol-1-yl)-3-phenyl-propan-1-one] cannot be ordered by pIC50: < 4.22 for the first, < 4.22 for the second.

First: CN(C(=O)c1cccc(-n2c(O)c3c(c2O)CC=CC3)c1)C1CCCCC1 [3-[1,3-bis(oxidanylidene)-3a,4,7,7a-tetrahydroisoindol-2-yl]-N-cyclohexyl-N-methyl-benzamide]
Second: CC(C)C(NC(=O)C1CCCCC1)C(=O)Nc1ccncc1 (stereo unspecified) [MLS000090506]
The pIC50 of the first is lower: < 4.22 for the first, 5.64 for the second. The second is the more potent here.

Cc1cc(NC(=O)CSc2nc(-c3ccccc3)cs2)no1 [MLS000066259] and Cc1onc(-c2ccccc2)c1C(=O)N1CCN(C/C=C/c2ccccc2)CC1 [(5-methyl-3-phenyl-1,2-oxazol-4-yl)-[4-[(E)-3-phenylprop-2-enyl]piperazin-1-yl]methanone;hydrochloride] cannot be ordered by pIC50: < 4.22 for the first, < 4.22 for the second.

C1=C(c2ccccc2)CCN(c2[nH]cnc3ncnc2-3)C1 [SMR000017661] and c1ccc(OCCCc2nc(-c3ccncc3)no2)cc1 [4-[5-(3-phenoxypropyl)-1,2,4-oxadiazol-3-yl]pyridine] cannot be ordered by pIC50: < 4.70 for the first, < 4.22 for the second.

NC(=O)c1sc2nc3c(c(-c4ccco4)c2c1N)CCC3 [3-amino-4-(2-furyl)-6,7-dihydro-5H-cyclopenta[b]thieno[3,2-e]pyridine-2-carboxamide] and COc1ccc2cc3c(N)c(C(=O)NCc4ccco4)sc3nc2c1 [3-Amino-7-methoxy-thieno[2,3-b]quinoline-2-carboxylic acid (furan-2-ylmethyl)-amide] cannot be ordered by pIC50: < 4.22 for the first, < 4.70 for the second.

First: O=C(Nc1ccncc1)C1CCCN(S(=O)(=O)c2cccc3cccnc23)C1 (stereo unspecified) [MLS000118826]
Second: Cc1ccccc1NC(=O)Cn1c(C)nc2ccc(NC(=O)C3CC3)cc2c1=O [Cyclopropanecarboxylic acid [2-methyl-4-oxo-3-(o-tolylcarbamoyl-methyl)-3,4-dihydro-quinazolin-6-yl]-amide]
The pIC50 of the first is higher: 5.76 for the first, < 4.22 for the second.

COc1ccc2c(Cl)c(C(N)=O)sc2c1 [3-Chloro-6-methoxy-benzo[b]thiophene-2-carboxylic acid amide] and COC(=O)c1sc2cnccc2c1N [3-amino-2-thieno[2,3-c]pyridinecarboxylic acid methyl ester] are within 0.2 log units of each other in pIC50: 5.17 for the first, 5.08 for the second.

Cn1c(C(=O)N2CCCC(C(=O)N3CCN(C(=O)c4ccco4)CC3)C2)cc2sccc21 (stereo unspecified) [MLS000119519] and CC(C)CCN1CC(C(=O)N2CCN(c3ccc(F)cc3)CC2)CC1=O (stereo unspecified) [4-[4-(4-fluorophenyl)piperazin-1-yl]carbonyl-1-(3-methylbutyl)pyrrolidin-2-one] cannot be ordered by pIC50: < 4.22 for the first, < 4.22 for the second.

CC(C)[C@H]1C(=O)N2CCC[C@H]2[C@]2(O)O[C@](NC(=O)[C@@H]3C=C4c5cccc6[nH]cc(c56)C[C@H]4N(C)C3)(C(C)C)C(=O)N12 [ERGOCORNINE] and Cc1cc(C(=O)CN2C(=O)NC3(CCCCC3)C2=O)c(C)n1Cc1ccc2c(c1)OCO2 [3-[2-(2,5-dimethyl-1-piperonyl-pyrrol-3-yl)-2-keto-ethyl]-1,3-diazaspiro[4.5]decane-2,4-quinone] cannot be ordered by pIC50: < 4.22 for the first, < 4.22 for the second.

COc1ccc(CCC(=O)Nc2nc3c(s2)CN(C)CC3)cc1OC [3-(3,4-dimethoxyphenyl)-N-(5-methyl-6,7-dihydro-4H-[1,3]thiazolo[5,4-c]pyridin-2-yl)propanamide] and Cn1c(CSCc2ccc(Cl)c(Cl)c2)nnc1SCC(=O)Nc1nccs1 [2-[(5-{[(3,4-dichlorobenzyl)thio]methyl}-4-methyl-4H-1,2,4-triazol-3-yl)thio]-N-1,3-thiazol-2-ylacetamide] cannot be ordered by pIC50: < 4.22 for the first, < 4.70 for the second.

CCOC(=O)C1=C(CSc2nc(-c3ccncc3)ccc2C#N)OC(=N)C(C#N)C1c1cccnc1 (stereo unspecified) [6-amino-5-cyano-2-[[(3-cyano-6-pyridin-4-yl-2-pyridinyl)thio]methyl]-4-(3-pyridinyl)-4H-pyran-3-carboxylic acid ethyl ester] and Cc1[nH]nc2c1C(c1ccc(-c3ccccc3C#N)o1)C(C#N)C(=N)O2 (stereo unspecified) cannot be ordered by pIC50: < 4.70 for the first, < 4.70 for the second.

CCN(CC)CCNC(=O)CCCCn1c(=S)[nH]c2c([nH]c3ccc(OC)cc32)c1=O [N-[2-(diethylamino)ethyl]-5-(8-methoxy-4-oxo-2-thioxo-1,2,4,5-tetrahydro-3H-pyrimido[5,4-b]indol-3-yl)pentanamide] and COc1ccc2[nH]c(=O)c3c(c2c1)OC(C)(C)C=C3 cannot be ordered by pIC50: < 4.70 for the first, < 4.70 for the second.

First: CN1c2cccc3cccc(c23)C1N=O (stereo unspecified) [1-Methyl-1H-benzo[cd]indol-2-one oxime]
Second: CC(=O)n1cc(-c2ccncc2)c2ccccc21 [1-(3-pyridin-4-yl-1-indolyl)ethanone;hydrochloride]
The pIC50 of the first is lower: < 4.70 for the first, 5.09 for the second. The second is the more potent here.

Fc1ccccc1Cn1nnc2c(-n3ccnc3)ncnc21 [3-(2-Fluoro-benzyl)-7-imidazol-1-yl-3H-[1,2,3]triazolo[4,5-d]pyrimidine] and Clc1ccccc1-c1nn2c(-c3ccncc3)nnc2s1 [6-(2-chlorophenyl)-3-(4-pyridinyl)[1,2,4]triazolo[3,4-b][1,3,4]thiadiazole] cannot be ordered by pIC50: < 4.70 for the first, < 4.22 for the second.

c1coc(CNc2ncnc3sc4c(c23)CCCCC4)c1 [2-furfuryl(6,7,8,9-tetrahydro-5H-cyclohepta[4,5]thieno[1,2-c]pyrimidin-4-yl)amine] and N#Cc1c(N=Cc2ccco2)sc2c1CCCCC2 [2-(2-furanylmethylideneamino)-5,6,7,8-tetrahydro-4H-cyclohepta[b]thiophene-3-carbonitrile] cannot be ordered by pIC50: < 4.22 for the first, < 4.70 for the second.

Compared with Cc1c2ccncc2c(C)c2c1[nH]c1ccccc12 [5,11-dimethyl-2H-pyrido[4,3-b]carbazole], c1ccc2c(-c3ccncc3)c[nH]c2c1 is 0.92 log units higher in pIC50: 5.18 for the first, 6.10 for the second.

Nc1ccc2cn[nH]c2c1 and Oc1ncnc2cc(Cl)ccc12 [7-Chloro-quinazolin-4-ol] cannot be ordered by pIC50: < 4.70 for the first, < 4.70 for the second.

CN(CCO)c1ncnc2nc[nH]c12 [MLS000101269] and c1cn(CCCNc2ncnc3nc[nH]c23)cn1 [N-[3-(1-imidazolyl)propyl]-7H-purin-6-amine] are within 0.2 log units of each other in pIC50: 5.10 for the first, 5.21 for the second.

Going from Cc1cc(N2CCOCC2)c2c(N)c(C)cc(C)c2n1 [(2,6,8-trimethyl-4-morpholino-5-quinolyl)amine] to c1nc(N2CCOCC2)c2nc[nH]c2n1 [4-(7H-purin-6-yl)morpholine], the pIC50 rises from < 4.22 to 5.15.

Cc1cccc(N2CCN(C(=O)c3cn(C)c(=O)c4c3c3ccccc3n4C)CC2)c1C [4-[4-(2,3-dimethylphenyl)piperazin-1-yl]carbonyl-2,9-dimethyl-pyrido[3,4-b]indol-1-one] and C(=Nc1nc2ccccc2n1CCN1CCCCC1)c1cccs1 [MLS000038975] cannot be ordered by pIC50: < 4.22 for the first, < 4.22 for the second.

Compared with O=NCc1c[nH]c2ccccc12 [MLS000104363], Cc1[nH]c2ccccc2c1C1=CCNCC1 [MLS000045807] is 0.30 log units lower in pIC50: 5.32 for the first, 5.02 for the second.

Going from COc1cc(C=Nn2nnnc2N)ccc1OCc1ccc(F)cc1 [1-[[4-[(4-fluorophenyl)methoxy]-3-methoxy-phenyl]methylideneamino]-1,2,3,4-tetrazol-5-amine] to Cc1cc(Cl)ccc1OCc1nnc(-c2ccc(O)cc2)[nH]1 [MLS000097369], the pIC50 falls from 4.76 to < 4.70. The first is the more potent here.

CCCCCC(=O)Nc1ccc2oc(-c3ccncc3)nc2c1 [MLS000039066] and CCn1cc(C(=O)Nn2cnnc2)c(=O)c2ccc(C)nc21 [1-ethyl-4-keto-7-methyl-N-(1,2,4-triazol-4-yl)-1,8-naphthyridine-3-carboxamide] cannot be ordered by pIC50: < 4.70 for the first, < 4.22 for the second.

In the case of O=c1ccc(=O)n2n1CC(O)C2 [2-hydroxy-2,3-dihydro-1H-pyrazolo[1,2-a]pyridazine-5,8-dione], the pIC50 was < 4.22.

Same assay, conditions: inactive by the depositor's call

CCN1CCN(Cc2nnnn2C(C)(C)C)CC1 [1-(1-tert-Butyl-1H-tetrazol-5-ylmethyl)-4-ethyl-piperazine] and COc1ccc(N2CCN(c3ncnc4[nH]cnc34)CC2)cc1 [MLS000101243] are within 0.2 log units of each other in pIC50: 4.76 for the first, 4.78 for the second.

Cc1cccc(Nc2ncnc3[nH]cnc23)c1 [N-(3-methylphenyl)-7H-purin-6-amine] and Nc1ncnc2c1cnn2-c1ccccc1 [1-Phenyl-1H-pyrazolo[3,4-d]pyrimidin-4-ylamine] are within 0.2 log units of each other in pIC50: 4.88 for the first, 4.69 for the second.

Going from Clc1ccccc1-c1nnc2sc(-c3ccncc3)nn12 [3-(2-chlorophenyl)-6-(4-pyridyl)-[1,2,4]triazolo[3,4-b][1,3,4]thiadiazole] to O=C(CCCOc1ccccc1)Nc1ccncc1 [4-Phenoxy-N-pyridin-4-yl-butyramide], the pIC50 rises from 4.10 to 4.85 (0.75 log units). The second is the more potent here.

Nc1ccc2[nH]ncc2c1 and Brc1ccc2[nH]ncc2c1 are within 0.2 log units of each other in pIC50: 4.89 for the first, 4.79 for the second.

O=C(c1ccccc1)c1ccc2[nH]cnc2c1 [MLS000034982] and O=C(CSc1nc(-c2ccc(F)cc2)c[nH]1)Nc1cccc(O)c1 [2-[5-(4-Fluoro-phenyl)-1H-imidazol-2-ylsulfanyl]-N-(3-hydroxy-phenyl)-acetamide] are within 0.2 log units of each other in pIC50: 4.79 for the first, 4.63 for the second.

CC(=O)c1cc(C#N)c(SCc2ccncc2)nc1C [5-acetyl-6-methyl-2-(4-pyridylmethylthio)nicotinonitrile] and O=C(Nc1ccncc1)Nc1ccc(F)cc1F [1-(2,4-difluorophenyl)-3-(4-pyridyl)urea] are within 0.2 log units of each other in pIC50: 4.91 for the first, 4.72 for the second.

First: NC(=O)c1sc2nc(N3CCCCC3)c3c(c2c1N)CCCC3 [1-amino-5-(1-piperidinyl)-6,7,8,9-tetrahydrothieno[2,3-c]isoquinoline-2-carboxamide]
Second: NC(=O)c1c(-c2cccs2)csc1N [2-amino-4-(2-thienyl)thiophene-3-carboxamide]
The pIC50 of the first is 0.86 log units lower: 3.85 for the first, 4.71 for the second.

First: O=C(Nc1ccc(N2CCOCC2)cc1)Nc1ccc2nc(-c3ccco3)c(-c3ccco3)nc2c1 [N-(2,3-di-2-furyl-6-quinoxalinyl)-N'-[4-(4-morpholinyl)phenyl]urea]
Second: CN1C(=O)CSc2ccc(NC(=O)NCc3cccnc3)cc21 [1-(3-keto-4-methyl-1,4-benzothiazin-6-yl)-3-(3-pyridylmethyl)urea]
The pIC50 of the first is 0.40 log units lower: 4.59 for the first, 4.99 for the second. The second is the more potent here.

Cc1ccc(S(=O)(=O)NCCCOC(=O)Nc2ccncc2)cc1 [3-[(4-methylphenyl)sulfonylamino]propyl N-pyridin-4-ylcarbamate] and Nc1cccc2cnccc12 [isoquinolin-5-amine] are within 0.2 log units of each other in pIC50: 4.69 for the first, 4.52 for the second.

COC1(OC)N=C(N)C2(C#N)C(c3ccc4c(c3)OCO4)C12C#N (stereo unspecified) was tested, and the pIC50 was 4.32.
